These results are taken from patent US11466016B2, “Pharmaceutical compounds” (priority 2018, dated 2022).

The structures appear in SMILES notation. Counter-ions that a name gives are not always drawn.

One test addresses SHP2 (Homo sapiens (Human), UniProt Q06124). Put plainly: SHP2 Biochemical Assay (DiFMUP conversion, pIRS1 activating peptide). The note with it: DiFMUP substrate, 0.25 μM pIRS1 peptide, 30 min pre-incubation; average where more than one data point; read-out: SHP2 (IC50).
For a further test, the system named is pERK in HCC827 cells. Kind of test: Cellular pERK Inhibition Assay (phospho-p44/42 MAPK sandwich ELISA). It is filed as cell-based. The protocol: Cellular pERK Inhibition Assay
HCC827 cells (ATCC, Manassas, USA) were seeded into 96-well plates at a density of 1×10^5 cells/well in RPMI medium supplemented with 10% FBS and incubated 24 h. Compounds were diluted first in DMSO and then into serum-free medium, before being added to cells in triplicate to give a final concentration of 0.1% DMSO. Plates were incubated at 37° C. for 0.5 hours in a humidified atmosphere of 5% CO2 in air.
Following compound treatment, medium was removed and cells were lysed by adding 50 μL of lysis buffer (Cell Signalling Technology, Beverly, USA) to each well. Plates were then incubated at room temperature for 25 minutes with shaking. pERK levels were measured in lysates using the PathScan® phospho-p44/42 MAPK (Thr202/Tyr204) sandwich ELISA (Cell Signalling Technology, Beverly, USA) as per kit instructions. Briefly, 50 μL of cell lysate was added to 50 μL of ELISA sample diluent in a 96-well ELISA plate and incubated overnight at 4° C. Following washing, 100 μL of detection antibody was added per well and the plates incubated for 1 hour at 37° C. […] Plates were read at 450 nm on a SpectraMax Gemini reader (Molecular Devices, Uckfield, UK).
The average signal from blank wells (no cells added) was subtracted from the signals from each sample well. Levels of pERK were then expressed as “percent of control”, using DMSO treated samples as control. […]
For orientation: In an ELISA, binding on a coated surface is turned into a signal by an enzyme label.

SHP2, sequence (Q06124 whole entry): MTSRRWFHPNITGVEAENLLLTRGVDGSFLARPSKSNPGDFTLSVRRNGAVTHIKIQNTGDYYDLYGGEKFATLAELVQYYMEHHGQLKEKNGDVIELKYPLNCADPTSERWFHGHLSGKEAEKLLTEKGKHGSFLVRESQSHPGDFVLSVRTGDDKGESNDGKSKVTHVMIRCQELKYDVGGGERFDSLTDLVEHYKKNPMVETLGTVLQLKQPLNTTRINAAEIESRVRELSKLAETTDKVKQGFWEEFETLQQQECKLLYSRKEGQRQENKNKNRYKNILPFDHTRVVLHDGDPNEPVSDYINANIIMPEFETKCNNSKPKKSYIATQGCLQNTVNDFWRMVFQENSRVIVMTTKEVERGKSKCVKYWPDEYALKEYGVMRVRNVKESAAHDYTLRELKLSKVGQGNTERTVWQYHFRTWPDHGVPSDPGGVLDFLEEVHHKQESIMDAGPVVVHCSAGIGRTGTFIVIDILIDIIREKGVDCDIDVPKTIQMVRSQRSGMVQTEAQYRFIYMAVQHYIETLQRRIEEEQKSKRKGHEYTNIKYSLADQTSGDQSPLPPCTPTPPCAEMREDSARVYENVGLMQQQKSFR

The term IC50 denotes the concentration that inhibits the measured activity by half. `COc1cc2c(Cl)c(-c3c[nH]c4nc(N5[C@@H]6CC[C@H]5C[C@@H](N)C6)cnc34)ccc2nc1C` [Example 42, endo-8-[7-(5-chloro-3-methoxy-2-methylquinolin-6-yl)-5H-pyrrolo[2,3-b]pyrazin-3-yl]-8-azabicyclo[3.2.1]octan-3-amine]: at SHP2, the IC50 stood at 17 nM. Moreover, the “Cellular pERK assay (percent at stated concentration)” value in the test with pERK in HCC827 cells (at 1 μM) was determined as 24% at 1 μM.

`COc1ccc2ccc(-c3c[nH]c4nc(N5[C@@H]6CC[C@H]5C[C@@H](N)C6)cnc34)c(Cl)c2n1` [Example 27, endo-8-[7-(8-chloro-2-methoxyquinolin-7-yl)-5H-pyrrolo[2,3-b]pyrazin-3-yl]-8-azabicyclo[3.2.1]octan-3-amine, hydrochloride salt]: the IC50 on SHP2 was found to be 17 nM. In addition, in the test with pERK in HCC827 cells (at 10 uM), the “Cellular pERK assay (percent at stated concentration)” value stood at 53% at 10 uM.
